Assay results: ChEMBL document CHEMBL3217452, “Design, synthesis, and structureactivity relationships of 1,3,4-oxadiazol-2(3H)-ones as novel FAAH inhibitors” (Medchemcomm, 2011)

Experiments:
Mus musculus [1] = test: Inhibition of FAAH in mouse liver at 30 mg/kg, po after 1 hr; type: functional; conditions: values are per cent of control
Mus musculus [2] = test: Inhibition of FAAH in mouse brain at 30 mg/kg, po after 1 hr; type: functional; conditions: values are per cent of control
Mus musculus [3] = test: Inhibition of FAAH in mouse liver at 30 mg/kg, po after 4 hrs; type: functional; conditions: values are per cent of control
Mus musculus [4] = test: Inhibition of FAAH in mouse liver at 30 mg/kg, po after 8 hrs; type: functional; conditions: values are per cent of control
Mus musculus [5] = test: Inhibition of FAAH in mouse liver at 30 mg/kg, po after 24 hrs; type: functional; conditions: values are per cent of control
Mus musculus [6] = test: Inhibition of FAAH in mouse brain at 30 mg/kg, po after 4 hrs; type: functional; conditions: values are per cent of control
Mus musculus [7] = test: Inhibition of FAAH in mouse brain at 30 mg/kg, po after 8 hrs; type: functional; conditions: values are per cent of control
Mus musculus [8] = test: Inhibition of FAAH in mouse brain at 30 mg/kg, po after 24 hrs; type: functional; conditions: values are per cent of control
[9] = biological target: T1, Fatty-acid amide hydrolase 1 (Rattus norvegicus) (UniProt P97612); test: Inhibition of FAAH in rat brain homogenates using [3H]-anandamide as substrate assessed as formation of [3H]-ethanolamine at 10 uM relative to control; type: tissue-based; conditions: values are per cent of control
T1 sequence (whole entry): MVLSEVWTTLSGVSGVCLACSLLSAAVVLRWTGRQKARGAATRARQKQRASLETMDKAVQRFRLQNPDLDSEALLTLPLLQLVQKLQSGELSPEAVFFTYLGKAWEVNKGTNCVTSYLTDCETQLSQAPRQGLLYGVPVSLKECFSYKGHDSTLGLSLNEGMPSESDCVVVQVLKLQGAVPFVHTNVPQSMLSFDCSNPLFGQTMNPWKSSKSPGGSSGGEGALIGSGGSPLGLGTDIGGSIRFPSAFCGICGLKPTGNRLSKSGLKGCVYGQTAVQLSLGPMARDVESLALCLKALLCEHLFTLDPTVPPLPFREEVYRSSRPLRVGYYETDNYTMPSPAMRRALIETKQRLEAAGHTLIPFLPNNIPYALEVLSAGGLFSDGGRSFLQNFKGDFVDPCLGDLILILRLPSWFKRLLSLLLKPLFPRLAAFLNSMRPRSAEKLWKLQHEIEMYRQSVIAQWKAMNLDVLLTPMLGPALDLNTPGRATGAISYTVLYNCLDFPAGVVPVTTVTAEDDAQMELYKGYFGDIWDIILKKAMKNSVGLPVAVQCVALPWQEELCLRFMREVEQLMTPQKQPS

Mus musculus [10] = test: Inhibition of FAAH in mouse liver at 10 mg/kg, po after 1 hr; type: functional; conditions: values are per cent of control
Mus musculus [11] = test: Inhibition of FAAH in mouse liver at 10 mg/kg, po after 4 hrs; type: functional; conditions: values are per cent of control
Mus musculus [12] = test: Inhibition of FAAH in mouse liver at 10 mg/kg, po after 8 hrs; type: functional; conditions: values are per cent of control
Mus musculus [13] = test: Inhibition of FAAH in mouse liver at 10 mg/kg, po after 24 hrs; type: functional; conditions: values are per cent of control
Mus musculus [14] = test: Inhibition of FAAH in mouse brain at 10 mg/kg, po after 1 hr; type: functional; conditions: values are per cent of control
Mus musculus [15] = test: Inhibition of FAAH in mouse brain at 10 mg/kg, po after 4 hrs; type: functional; conditions: values are per cent of control
Mus musculus [16] = test: Inhibition of FAAH in mouse brain at 10 mg/kg, po after 8 hrs; type: functional; conditions: values are per cent of control
Mus musculus [17] = test: Inhibition of FAAH in mouse brain at 10 mg/kg, po after 24 hrs; type: functional; conditions: values are per cent of control
[18] = biological target: T2, Fatty-acid amide hydrolase 1 (Homo sapiens, UniProt O00519); test: Inhibition of FAAH (unknown origin)
T2 sequence (O00519 whole entry): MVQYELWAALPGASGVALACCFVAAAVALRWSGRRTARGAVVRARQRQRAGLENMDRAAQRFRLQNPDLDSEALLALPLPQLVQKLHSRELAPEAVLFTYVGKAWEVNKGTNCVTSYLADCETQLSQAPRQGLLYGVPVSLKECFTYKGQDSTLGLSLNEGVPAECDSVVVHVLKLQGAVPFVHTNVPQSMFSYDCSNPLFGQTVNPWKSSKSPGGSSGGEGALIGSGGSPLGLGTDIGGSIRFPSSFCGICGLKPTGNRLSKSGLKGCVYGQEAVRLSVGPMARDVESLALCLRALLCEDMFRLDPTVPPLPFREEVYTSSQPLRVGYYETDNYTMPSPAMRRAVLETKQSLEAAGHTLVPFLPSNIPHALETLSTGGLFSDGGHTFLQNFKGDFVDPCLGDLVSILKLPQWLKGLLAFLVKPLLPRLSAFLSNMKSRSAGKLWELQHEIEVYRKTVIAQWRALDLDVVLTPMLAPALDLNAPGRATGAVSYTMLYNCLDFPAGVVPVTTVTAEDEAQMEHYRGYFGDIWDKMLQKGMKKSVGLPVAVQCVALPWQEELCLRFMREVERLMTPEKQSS

Structure (SMILES) | residual activity at 30 mg/kg (Mus musculus [1]) [%] | residual activity at 30 mg/kg (Mus musculus [2]) [%] | also measured
O=c1oc(Oc2ccc(Cl)cc2Cl)nn1-c1ccc(O)cc1 | 9 | 59 | residual activity at 30 mg/kg (Mus musculus [3]): 18%; residual activity at 30 mg/kg (Mus musculus [4]): 11%; residual activity at 30 mg/kg (Mus musculus [5]): 103%; residual activity at 30 mg/kg (Mus musculus [6]): 72%; residual activity at 30 mg/kg (Mus musculus [7]): 52%; residual activity at 30 mg/kg (Mus musculus [8]): 99%
O=c1oc(Oc2ccccc2)nn1-c1cccc(O)c1 | 33 | 95 | –
O=c1oc(Oc2ccccc2F)nn1-c1ccc(O)cc1 | 44 | 94 | –
O=c1oc(Oc2ccc([N+](=O)[O-])cc2)nn1-c1ccc(O)cc1 | 45 | 96 | –
O=C(c1ccccc1)c1nn(-c2ccccc2)c(=O)o1 | – | – | residual activity [9]: 84%
COc1ccc(Oc2nn(-c3ccccc3)c(=O)o2)cc1 | 94 | 108 | –
O=c1oc(Oc2ccccc2)nn1-c1ccccc1F | 72 | – | –
O=c1oc(OCc2ccccc2)nn1Cc1ccccc1 | – | – | residual activity [9]: 86%
O=c1oc(Oc2ccc(Cl)cc2)nn1-c1ccc(O)cc1 | 20 | 38 | –
O=c1oc(Oc2ccc(F)cc2)nn1-c1ccc(O)cc1 | 30 | 82 | –
O=c1oc(Oc2ccc(F)cc2F)nn1-c1ccccc1 | 39 | 94 | –
O=c1oc(Oc2ccc(F)cc2F)nn1-c1cccc(O)c1 | 12 | 94 | –
O=c1oc(Oc2ccc(F)cc2F)nn1-c1ccc(O)c(O)c1 | 4 | 66 | residual activity at 10 mg/kg (Mus musculus [10]): 6%; residual activity at 10 mg/kg (Mus musculus [11]): 18%; residual activity at 10 mg/kg (Mus musculus [12]): 27%; residual activity at 10 mg/kg (Mus musculus [13]): 79%; residual activity at 10 mg/kg (Mus musculus [14]): 102%; residual activity at 10 mg/kg (Mus musculus [15]): 100%; residual activity at 10 mg/kg (Mus musculus [16]): 103%; residual activity at 10 mg/kg (Mus musculus [17]): 104%
O=c1oc(Cc2ccccc2)nn1-c1ccccc1 | – | – | residual activity [9]: 97%
COc1cc(Br)ccc1Oc1nn(-c2ccccc2)c(=O)o1 | 83 | 101 | –
COc1nn(-c2cccc(Cl)c2)c(=O)o1 | – | – | residual activity [9]: 5%
O=c1oc(Oc2ccc(Cl)cc2)nn1-c1ccccc1 | 81 | 110 | –
O=c1oc(-c2ccccc2)nn1-c1ccccc1 | – | – | residual activity [9]: 110%
O=c1oc(Oc2ccc(F)cc2)nn1-c1cccc(O)c1 | 24 | 99 | –
O=c1oc(Oc2ccc(Cl)cc2)nn1-c1cccc(O)c1 | 10 | 100 | –
O=c1oc(Oc2ccccc2)nn1-c1ccc(F)cc1F | 65 | 86 | –
COc1nn(-c2ccc(Oc3ccccc3)cc2)c(=O)o1 | – | – | IC50 [18]: 6.1 nM
O=c1oc(Oc2ccc(F)cc2F)nn1-c1ccc(O)cc1 | 12 | 86 | –
O=c1oc(Oc2ccc(Cl)cc2)nn1-c1ccc(O)c(O)c1 | 5 | 83 | residual activity at 10 mg/kg (Mus musculus [10]): 10%; residual activity at 10 mg/kg (Mus musculus [11]): 17%; residual activity at 10 mg/kg (Mus musculus [12]): 38%; residual activity at 10 mg/kg (Mus musculus [13]): 91%; residual activity at 10 mg/kg (Mus musculus [14]): 99%; residual activity at 10 mg/kg (Mus musculus [15]): 90%; residual activity at 10 mg/kg (Mus musculus [16]): 96%; residual activity at 10 mg/kg (Mus musculus [17]): 102%
O=c1oc(N2CCOCC2)nn1-c1cccc(Cl)c1 | – | – | residual activity [9]: 104%
O=c1oc(Oc2ccccc2)nn1-c1ccc(O)cc1 | 46 | 97 | –
O=c1oc(Oc2ccc(Cl)cc2)nn1-c1ccc(O)cc1F | 4 | 64 | residual activity at 30 mg/kg (Mus musculus [4]): 7%; residual activity at 30 mg/kg (Mus musculus [5]): 79%; residual activity at 30 mg/kg (Mus musculus [6]): 34%; residual activity at 30 mg/kg (Mus musculus [7]): 57%; residual activity at 30 mg/kg (Mus musculus [8]): 80%
